Where two headings read alike, the source gives them in different places.
Assays:
Escherichia coli = experiment: In vivo antibacterial activity in mice infected with Escherichia coli (intraperitoneal), compound given orally at infection and 4 hours later; mortality through third day; conditions: for ED50: Escherichia coli, po, 72 h
Method: Use of the ester of this invention as antibacterial agents is exemplified by data for 6,7-methylene-1-(2,2,2-trifluoroethyl)-4(1H)-quinolone-3-carboxylic acid, trimethylacetoxymethyl ester. In vivo determinations of antibacterial activity are carried out in mice.
The test bacterium is grown into bacteriological medium from frozen stock cultures. The culture is centrifuged, resuspended, centrifuged again, resuspended in fresh bacteriological medium, and diluted to the proper infective concentration. Mice are infected by intraperitoneal or intravenous injection of 0.2 ml. of the diluted bacterial culture.
Test compounds are dissolved or suspended in water containing 0.01% Tween 80 by either sonication or bead-milling to break up the materials in order to dissolve them or provide a fine suspension for the insoluble compounds. Concentrations are prepared so that when 0.2 ml. of the solution or suspension is administered to mice orally by intubation, the correct amount of compound in mg/kg of mouse is provided.
The mice are dosed with test compound orally by intubation at appropriate intervals following infection and mortality is recorded through the third day. The effective dose 50 (ED50) and lethal dose for 50% kill (LD50) are calculated by the Reed-Muench method.
In Table I are the results of a test in mice infected with Escherichia coli by the intraperitoneal route. Compound was administered orally by intubation immediately following infection and again 4 hours after infection.
^1 Animals dosed orally at the time of infection and again four hours
^2 Determined by agar plate counts and stock culture titration, the
dose is the LD50 multiplied by the number preceding it.

[1] = Biological activity of stable versus metastable crystalline form (test not specified); format: in vivo; conditions: probably due to poor absorption
[2] = 18 LD50 E. coli infection, 10 mg/kg PO, at infection and again 4 hours later
[3] = 18 LD50 E. coli infection, 30 mg/kg PO, at infection and again 4 hours later
[4] = 18 LD50 E. coli infection, 100 mg/kg PO, at infection and again 4 hours later
[5] = 135 LD50 E. coli infection, 10 mg/kg PO, at infection and again 4 hours later
[6] = 135 LD50 E. coli infection, 30 mg/kg PO, at infection and again 4 hours later
[7] = 135 LD50 E. coli infection, 100 mg/kg PO, at infection and again 4 hours later
[8] = 4 LD50 E. coli infected mice, oral, read-out: ED50
[9] = 2 LD50 E. coli infected mice, oral, read-out: ED50

Question: Which results are given for `CC(C)(C)C(=O)OCOC(=O)c1cn(CC(F)(F)F)c2cc3c(cc2c1=O)OCO3` [Example 6, 6,7-Methylenedioxy-1-(2,2,2-trifluoroethyl)-4(1H)-quinolone-3-carboxylic acid, trimethylacetoxymethyl ester]?
Answer: % Survivors (Escherichia coli; [2]): 33%; % Survivors (Escherichia coli; [3]): 50%; % Survivors (Escherichia coli; [4]): 75%; % Survivors (Escherichia coli; [5]): 17%; % Survivors (Escherichia coli; [6]): 8%; % Survivors (Escherichia coli; [7]): 50%; ED50 (Escherichia coli; 18 LD50 E. coli infection, PO, at infection and again 4 hours later, Reed-Muench, read-out: ED50): 24 mg/kg; ED50 (Escherichia coli; 135 LD50 E. coli infection, PO, at infection and again 4 hours later, Reed-Muench, read-out: ED50): 77 mg/kg; antibacterial activity compared with oxolinic acid (Escherichia coli; systemic Escherichia coli infection of mice, two infecting levels of bacteria): significantly greater antibacterial activity than does oxolinic acid

Question: With `CC(C)C(=O)OCOC(=O)c1cn(CC(F)(F)F)c2cc3c(cc2c1=O)OCO3` [Example 6A, 6,7-methylenedixoy-1-(2,2,2-trifluoroethyl)-4(1H)-quinolone-3-carboxylic acid, iso-butyryloxymethyl ester] as the compound, how does the ED50 (Escherichia coli; [8]) read?
Answer: 73 mg/kg

Question: For `CCC(C)(C)C(=O)OCOC(=O)c1cn(CC(F)(F)F)c2cc3c(cc2c1=O)OCO3` [Example 6B, 6,7-methylenedioxy-1-(2,2,2-trifluoroethyl)-4(1H)-quinolone-3-carboxylic acid, 2,2-dimethyl-n-butyryloxymethyl ester], which ED50 (Escherichia coli; [8]) is on record?
Answer: 40 mg/kg

Question: For `CCCCCC(=O)OCOC(=O)c1cn(CC(F)(F)F)c2cc3c(cc2c1=O)OCO3` [Example 6C, 6,7-methylenedioxy-1-(2,2,2-trifluoroethyl)-4(1H)-quinolone-3-carboxylic acid, n-hexanoyloxymethyl ester], which ED50 (Escherichia coli; [8]) is on record?
Answer: 25 mg/kg

Question: With `CCCCCCCCCC(=O)OCOC(=O)c1cn(CC(F)(F)F)c2cc3c(cc2c1=O)OCO3` [Example 6D, 6,7-methylenedioxy-1-(2,2,2-trifluoroethyl)-4(1H)-quinolone-3-carboxylic acid, n-decanoyloxymethyl ester] as the compound, how does the ED50 (Escherichia coli; [9]) read?
Answer: 19 mg/kg

Question: For `O=C(OCOC(=O)C1CCCCC1)c1cn(CC(F)(F)F)c2cc3c(cc2c1=O)OCO3` [Example 6E, 6,7-methylenedioxy-1-(2,2,2-trifluoroethyl)-4(1H)-quinolone-3-carboxylic acid, cyclohexanecarbonyloxymethyl ester], which ED50 (Escherichia coli; [9]) is on record?
Answer: 29 mg/kg

Question: With `O=C(OCOC(=O)c1cn(CC(F)(F)F)c2cc3c(cc2c1=O)OCO3)c1ccccc1` [Example 6F, 6,7-methylenedioxy-1-(2,2,2-trifluoroethyl)-4(1H)-quinolone-3-carboxylic acid, benzoyloxymethyl ester] as the compound, how does the ED50 (Escherichia coli; [8]) read?
Answer: 34 mg/kg

Question: For `CCn1cc(C(=O)O)c(=O)c2cc3c(cc21)OCO3` [Oxolinic Acid, reference compound], which “% Survivors” value (Escherichia coli; [2]) is on record?
Answer: 8%

Question: And the “% Survivors” value (Escherichia coli; [3])?
Answer: 33%

Question: What about the “% Survivors” value (Escherichia coli; [4]) of the same compound?
Answer: 83%

Question: And the “% Survivors” value (Escherichia coli; [5])?
Answer: 17%

Question: What about the “% Survivors” value (Escherichia coli; [6]) of the same compound?
Answer: 17%

Question: What about the “% Survivors” value (Escherichia coli; [7]) of the same compound?
Answer: 25%

Question: And the ED50 (Escherichia coli; 18 LD50 E. coli infection, at infection and again 4 hours later, Reed-Muench)?
Answer: 45 mg/kg

Question: And the ED50 (Escherichia coli; 135 LD50 E. coli infection, at infection and again 4 hours later, Reed-Muench)?
Answer: > 100 mg/kg

Question: With `CC(C)(C)C(=O)OCOC(=O)c1cn(CC(F)(F)F)c2cc3c(cc2c1=O)OCO3` [stable form, 6,7-Methylenedioxy-1-(2,2,2-trifluoroethyl)-4(1H)-quinolone-3-carboxylic acid, trimethylacetoxymethyl ester] as the compound, how does the “biological activity of stable form compared with meta-stable form” value [1] read?
Answer: less active than the meta-stable

From patent publication US4036962A, “6,7-Methylenedioxy-1-(2,2,2-trifluoroethyl)-4(1H)-quinolone-3-carboxylic acid and its salts and esters” (E. I. Du Pont de Nemours and Co., priority 1975, dated 1977)
